Assay results reported in US20230312522A1, “CYP46A1 INHIBITORS AND METHODS OF USE THEREOF” (Sage Therapeutics, Inc., priority 2020, published 2023).

Target: CYP46A1 (Homo sapiens (Human), UniProt Q9Y6A2)
Experiment: CYP46A1 enzyme assay (testosterone substrate, HPLC-MS)
Type: biochemical
Conditions: CYP46A1 5 μM, Testosterone 10 mM, NADPH-generating system, 37° C., 15 minutes
Method: Briefly, in a 384-well plate format, 10 μL per well of an enzyme-substrate mixture of CYP46A1 (5 μM final concentration) and Testosterone ([…] final concentration) were dispensed to wells containing test compound. For CYP46A1 titration, 5 μL per well of serially diluted CYP46A1 (concentrations including 10 μM, 5 μM, and 2.5 μM) and Testosterone (concentration of […]) were dispensed. For Testosterone titration, 5 μL per well of serially diluted Testosterone (concentrations including 10 μM, 5 μM, and 2.5 μM) and CYP46A1 (concentration of 5 μM) were dispensed. The plates were centrifuged at 1000 rpm for 30 seconds, and then sealed and incubated at 37° C. for 30 minutes. The plate was removed from the incubator, and then 10 μL per well of NADPH-generating system were dispensed to initiate the reaction. The plates were incubated at 37° C. for 15 minutes, added with 80 μL per well of 100% methanol consisting 1 ng/ml diclofenac as internal standard, and then transferred for HPLC-MS.
In Table 2, A indicates a CYP46A1 IC50<0.1 μM, B indicates a CYP46A1 IC50 (μM) of 0.1 μM to <1.0 μM, and C indicates a CYP46A1 IC50 (μM) of ≥1.0 μM

Chain of CYP46A1 (Q9Y6A2 whole entry, species assumed): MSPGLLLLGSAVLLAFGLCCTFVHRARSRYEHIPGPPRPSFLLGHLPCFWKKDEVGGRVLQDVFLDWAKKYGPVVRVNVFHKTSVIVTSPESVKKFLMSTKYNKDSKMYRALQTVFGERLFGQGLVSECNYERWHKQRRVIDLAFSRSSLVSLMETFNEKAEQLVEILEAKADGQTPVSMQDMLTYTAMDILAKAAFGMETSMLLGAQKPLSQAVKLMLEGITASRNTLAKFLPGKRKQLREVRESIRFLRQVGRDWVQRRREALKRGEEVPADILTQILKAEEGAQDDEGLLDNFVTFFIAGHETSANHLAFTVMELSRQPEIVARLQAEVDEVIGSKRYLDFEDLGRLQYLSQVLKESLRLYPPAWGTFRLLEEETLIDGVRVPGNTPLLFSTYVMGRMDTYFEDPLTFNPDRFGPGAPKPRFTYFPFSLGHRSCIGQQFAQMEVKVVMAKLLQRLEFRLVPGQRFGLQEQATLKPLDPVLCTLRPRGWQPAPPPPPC

Structure (SMILES) | IC50 [nM]
O=C(c1cccnc1-c1ccncn1)N1CCC(F)(CC2CCOCC2)CC1 [Compound 2, (4-fluoro-4-((tetrahydro-2H-pyran-4-yl)methyl)piperidin-1-yl)(2-(pyrimidin-4-yl)pyridin-3-yl)methanone] | ≥ 1000
O=C(c1cccnc1-c1ccncc1)N1CCC(F)(CC2CCOCC2)CC1 [Compound 3] | ≥ 1000
O=C(c1cccnc1-c1ccncn1)N1CCC(F)(Cc2ccc(F)cn2)CC1 [Compound 10, (4-fluoro-4-((5-fluoropyridin-2-yl)methyl)piperidin-1-yl)(2-(pyrimidin-4-yl)pyridin-3-yl)methanone] | 100 to 1000
O=C(c1cccnc1-c1ccncn1)N1CCC(F)(Cc2ccc(C(F)(F)F)nn2)CC1 [Compound 36, (4-fluoro-4-((6-(trifluoromethyl)pyridazin-3-yl)methyl)piperidin-1-yl)(2-(pyrimidin-4-yl)pyridin-3-yl)methanone] | 100 to 1000
O=C(c1cccnc1-c1ccncc1)N1CCC(F)(Cc2ccc(C(F)(F)F)nn2)CC1 [Compound 37, [2,4′-bipyridin]-3-yl(4-fluoro-4-((6-(trifluoromethyl)pyridazin-3-yl)methyl)piperidin-1-yl)methanone] | 100 to 1000
O=C(c1cccnc1-c1ccncn1)N1CCC(F)(Cc2cnc(C(F)(F)F)cn2)CC1 [Compound 40, (4-fluoro-4-((5-(trifluoromethyl)pyrazin-2-yl)methyl)piperidin-1-yl)(2-(pyrimidin-4-yl)pyridin-3-yl)methanone] | 100 to 1000
O=C(c1cccnc1-c1ccncn1)N1CCC(F)(Cc2cnc(C(F)(F)F)nc2)CC1 [Compound 41, (4-fluoro-4-((2-(trifluoromethyl)pyrimidin-5-yl)methyl)piperidin-1-yl)(2-(pyrimidin-4-yl)pyridin-3-yl)methanone] | 100 to 1000
Cc1ccc(CC2(F)CCN(C(=O)c3cccnc3-c3ccncn3)CC2)nc1 [Compound 42, (4-fluoro-4-((5-methylpyridin-2-yl)methyl)piperidin-1-yl)(2-(pyrimidin-4-yl)pyridin-3-yl)methanone] | 100 to 1000
O=C(c1cccnc1-c1ccncn1)N1CCC(F)(Cc2cnccn2)CC1 [Compound 44, (4-fluoro-4-(pyrazin-2-ylmethyl)piperidin-1-yl)(2-(pyrimidin-4-yl)pyridin-3-yl)methanone] | 100 to 1000
O=C(c1cccnc1-c1ccncn1)N1CCC(F)(Cc2cccnn2)CC1 [Compound 48, (4-fluoro-4-(pyridazin-3-ylmethyl)piperidin-1-yl)(2-(pyrimidin-4-yl)pyridin-3-yl)methanone] | 100 to 1000
O=C(c1cccnc1-c1ccncc1)N1CCC(F)(Cc2cccnn2)CC1 [Compound 49, [2,4′-bipyridin]-3-yl(4-fluoro-4-(pyridazin-3-ylmethyl)piperidin-1-yl)methanone] | 100 to 1000
Cc1cnc(CC2(F)CCN(C(=O)c3cccnc3-c3ccncn3)CC2)cn1 [Compound 50, (4-fluoro-4-((5-methylpyrazin-2-yl)methyl)piperidin-1-yl)(2-(pyrimidin-4-yl)pyridin-3-yl)methanone] | 100 to 1000
Cc1ccc(CC2(F)CCN(C(=O)c3cccnc3-c3ccncn3)CC2)cn1 [Compound 53] | 100 to 1000

Results, then the compound that gave them:

IC50 [nM] | Structure (SMILES)
< 100 | O=C(c1cccnc1-c1ccncn1)N1CCC(F)(Cc2ccc(F)cc2)CC1 [Compound 1, (4-fluoro-4-(4-fluorobenzyl)piperidin-1-yl)(2-(pyrimidin-4-yl)pyridin-3-yl)methanone]
< 100 | O=C(c1cccnc1-c1ccncn1)N1CCC(F)(Cc2ccc(C(F)(F)F)cc2)CC1 [Compound 4, (4-fluoro-4-(4-(trifluoromethyl)benzyl)piperidin-1-yl)(2-(pyrimidin-4-yl)pyridin-3-yl)methanone]
< 100 | O=C(c1cccnc1-c1ccncn1)N1CCC(F)(Cc2ccccn2)CC1 [Compound 5, (4-fluoro-4-(pyridin-2-ylmethyl)piperidin-1-yl)(2-(pyrimidin-4-yl)pyridin-3-yl)methanone]
< 100 | N#Cc1ccc(CC2(F)CCN(C(=O)c3cccnc3-c3ccncn3)CC2)cc1 [Compound 6, 4-((4-fluoro-1-(2-(pyrimidin-4-yl)nicotinoyl)piperidin-4-yl)methyl)benzonitrile]
< 100 | O=C(c1cccnc1-c1ccncn1)N1CCC(F)(Cc2ccc(C3CC3)cn2)CC1 [Compound 7, (4-((5-cyclopropylpyridin-2-yl)methyl)-4-fluoropiperidin-1-yl)(2-(pyrimidin-4-yl)pyridin-3-yl)methanone]
< 100 | N#Cc1ccc(CC2(F)CCN(C(=O)c3cccnc3-c3ccncn3)CC2)c(F)c1 [Compound 9, 3-fluoro-4-((4-fluoro-1-(2-(pyrimidin-4-yl)nicotinoyl)piperidin-4-yl)methyl)benzonitrile]
< 100 | N#Cc1cc(F)c(CC2(F)CCN(C(=O)c3cccnc3-c3ccncn3)CC2)c(F)c1 [Compound 11, 3,5-difluoro-4-((4-fluoro-1-(2-(pyrimidin-4-yl)nicotinoyl)piperidin-4-yl)methyl)benzonitrile]
100 to 1000 | O=C(c1cccnc1-c1ccncn1)N1CCC(F)(C(=O)c2ccc(C(F)(F)F)cc2)CC1 [Compound 12, (4-fluoro-1-(2-(pyrimidin-4-yl)nicotinoyl)piperidin-4-yl)(4-(trifluoromethyl)phenyl)methanone]
< 100 | N#Cc1ccc([C@H](O)C2(F)CCN(C(=O)c3cccnc3-c3ccncn3)CC2)c(F)c1 [Compound 15]
100 to 1000 | N#Cc1ccc([C@@H](O)C2(F)CCN(C(=O)c3cccnc3-c3ccncn3)CC2)c(F)c1 [Compound 16]
100 to 1000 | N#Cc1ccc(C(=O)C2(F)CCN(C(=O)c3cccnc3-c3ccncn3)CC2)c(F)c1 [Compound 17, 3-fluoro-4-(4-fluoro-1-(2-(pyrimidin-4-yl)nicotinoyl)piperidine-4-carbonyl)benzonitrile]
100 to 1000 | N#Cc1ccc(CC2(F)CCN(C(=O)c3cccnc3-c3ccncn3)CC2)nc1 [Compound 21, 6-((4-fluoro-1-(2-(pyrimidin-4-yl)nicotinoyl)piperidin-4-yl)methyl)nicotinonitrile]
100 to 1000 | O=C(c1cccnc1-c1ccncn1)N1CCC(F)(Cc2cc(C(F)(F)F)ccn2)CC1 [Compound 25, (4-fluoro-4-((4-(trifluoromethyl)pyridin-2-yl)methyl)piperidin-1-yl)(2-(pyrimidin-4-yl)pyridin-3-yl)methanone]
100 to 1000 | O=C(c1cccnc1-c1ccncn1)N1CCC(F)(Cc2ccc(OC(F)(F)F)cn2)CC1 [Compound 27, (4-fluoro-4-((5-(trifluoromethoxy)pyridin-2-yl)methyl)piperidin-1-yl)(2-(pyrimidin-4-yl)pyridin-3-yl)methanone]
100 to 1000 | O=C(c1cccnc1-c1ccncn1)N1CCC(F)(Cc2ncc(Cl)cc2F)CC1 [Compound 30, (4-((5-chloro-3-fluoropyridin-2-yl)methyl)-4-fluoropiperidin-1-yl)(2-(pyrimidin-4-yl)pyridin-3-yl)methanone]
